One series relates to L1210. In words: Antiproliferative activity in mouse L1210 cells after 48 hrs by MTT assay. The series is classed as functional, cell-based. As to conditions: L1210, 48 h. A general note: Tetrazolium assays rely on reduction of a dye to a coloured formazan, in cell work by metabolically active cells; call rule not given here.
The nature of series [1]: Selectivity ratio of Kb for human FAM-5'-d(AGGGTTAGGGTTAGGGTTAGGG)-3'-BHQ1 telomeric G4 quadruplex DNA to Kb for d(CAATCGGATCGAATTCGATCCGATTG) DNA (unknown origin).
Series [2] deals with Quadruplex DNA. Description: Stabilization of human FAM-5'-d(AGGGTTAGGGTTAGGGTTAGGG)-3'-BHQ1 telomeric G4 quadruplex DNA assessed as change in melting temperature at 1 uM in presence of 50 fold excess of competitor ds26 oligonucleotide DNA by FRET assay. The series is classed as nucleic-acid assay.
The next series has as its system CCRF-CEM. Description: Antiproliferative activity in human CEM cells after 72 hrs by MTT assay. Format: functional, cell-based.
Series [3] is described as follows: Stabilization of d(CAATCGGATCGAATTCGATCCGATTG) DNA (unknown origin) assessed as binding constant at 1 uM by FRET assay.
In series [4] the test system is Quadruplex DNA. Description: Stabilization of human FAM-5'-d(AGGGTTAGGGTTAGGGTTAGGG)-3'-BHQ1 telomeric G4 quadruplex DNA assessed as binding constant at 1 uM by FRET assay. The series is classed as nucleic-acid assay.
Series [5] deals with Quadruplex DNA. Description: Stabilization of human FAM-5'-d(AGGGTTAGGGTTAGGGTTAGGG)-3'-BHQ1 telomeric G4 quadruplex DNA assessed as change in melting temperature at 1 uM by FRET assay. The series is classed as nucleic-acid assay.
Another series concerns HeLa. In words: Antiproliferative activity in human HeLa cells after 72 hrs by MTT assay. The series is classed as functional, cell-based.
A short description of series [6]: Drug uptake in human K562 cells at 1 uM within 15 mins by flow cytometry analysis. As to conditions: k562, 0.25 h. The series is classed as ADME, cell-based. A general note: In flow cytometry, cells or beads pass a laser one at a time.

The results in this text go back to ChEMBL document CHEMBL4261602, “Tri-armed ligands of G-quadruplex on heteroarene-fused anthraquinone scaffolds: Design, synthesis and pre-screening of biological properties” (Eur J Med Chem, 2018).

SMILES strings stand for the structures.

As a reminder, the IC50 is the concentration that gives 50% inhibition. Low values mean inhibition by little substance, high ones a need for much substance. For orientation: ΔTm means the change in melting temperature against a reference sample. Turning to `N=C(N)NCCNC(=O)c1cc2c(NCCCCCN)c3c(c(NCCCCCN)c2o1)C(=O)c1ccccc1C3=O`, the figures for the IC50 with L1210, in the series on CCRF-CEM and in the series with HeLa were 19 µM, 18 µM and 11 µM, respectively. For the same molecule, the Selectivity ratio in series [1] was determined as 850. Also, the ΔTm with Quadruplex DNA [2] was found to be 13 °C; with Quadruplex DNA [5], 18 °C. The Kb in [3] was 0.03 ×10⁶ /M; with Quadruplex DNA [4], 22 ×10⁶ /M.

In the case of `N=C(N)NCCCNC(=O)c1cc2c(NCCCCCN)c3c(c(NCCCCCN)c2s1)C(=O)c1ccccc1C3=O`, the IC50 in the series with L1210 turned out to be 19 µM; with CCRF-CEM, 21 µM; in the series with HeLa it was 12 µM. Also, the Selectivity ratio in series [1] turned out to be 2800. The Drug uptake entry in [6] is listed as “Active”. The ΔTm is 18 °C with Quadruplex DNA [2] and 21 °C in the series on Quadruplex DNA [5]. Further, the Kb in series [3] came out at 0.01 ×10⁶ /M; with Quadruplex DNA [4], 38 ×10⁶ /M.

`N=C(N)NCCCNC(=O)c1cc2c(NCCCNC(=N)N)c3c(c(NCCCNC(=N)N)c2o1)C(=O)c1ccccc1C3=O`: the IC50 was found to be 18 µM in the series on L1210, 17 µM with CCRF-CEM and 17 µM in the series on HeLa. Besides, the Selectivity ratio in series [1] is 4550. The ΔTm in the series on Quadruplex DNA [2] was 24 °C; in the series on Quadruplex DNA [5], 25 °C. The Kb turned out to be 0.02 ×10⁶ /M in series [3] and 91 ×10⁶ /M in the series with Quadruplex DNA [4].

With `N=C(N)NCCNc1c2c(c(NCCNC(=N)N)c3sccc13)C(=O)c1ccccc1C2=O`, in series [1], the Selectivity ratio stood at 60. Also, in series [6], the Drug uptake entry is “Active”. Further, the ΔTm in the series on Quadruplex DNA [2] came to 1 °C; in the series on Quadruplex DNA [5], 11 °C. The figures for the Kb (in series [3]; with Quadruplex DNA [4]) were 0.1 ×10⁶ /M and 6 ×10⁶ /M, respectively. In addition, it took 13 µM to reach half-maximal inhibition in the series on HeLa (IC50).

As to `N=C(N)NCCCNC(=O)c1cc2c(NCCCCN)c3c(c(NCCCCN)c2s1)C(=O)c1ccccc1C3=O`, the IC50 is 12 µM with L1210, 16 µM in the series with CCRF-CEM and 11 µM in the series on HeLa. For the same molecule, in series [1], the Selectivity ratio came to 2500. For the same molecule, the ΔTm is 18 °C with Quadruplex DNA [2] and 22 °C with Quadruplex DNA [5]. The Kb in [3] came out at 0.02 ×10⁶ /M; in the series on Quadruplex DNA [4] it was 45 ×10⁶ /M.

As for `N=C(N)NCCCNC(=O)c1cc2c(NCCNC(=N)N)c3c(c(NCCNC(=N)N)c2s1)C(=O)c1ccccc1C3=O`, the results for the IC50 in the series with L1210, in the series on CCRF-CEM and in the series with HeLa were 13 µM, 13 µM and 15 µM, respectively. Further, in series [1], the Selectivity ratio is 1300. In [6], the Drug uptake entry is recorded as “Active”. The ΔTm with Quadruplex DNA [2] worked out at 19 °C; with Quadruplex DNA [5], 20.5 °C. Also, the Kb in [3] was determined as 0.03 ×10⁶ /M; in the series on Quadruplex DNA [4], 40 ×10⁶ /M.

As to `N=C(N)NCCNC(=O)c1cc2c(NCCNC(=N)N)c3c(c(NCCNC(=N)N)c2o1)C(=O)c1ccccc1C3=O`, the figures for the IC50 in the series with L1210, in the series on CCRF-CEM and in the series on HeLa were 9 µM, 12 µM and 14 µM, respectively. For the same molecule, the Selectivity ratio in [1] stood at 2300. In addition, the ΔTm in the series on Quadruplex DNA [2] came out at 20.3 °C; in the series with Quadruplex DNA [5] it was 21.3 °C. Also, the Kb stood at 0.02 ×10⁶ /M in series [3] and 46 ×10⁶ /M in the series with Quadruplex DNA [4].

With `N=C(N)NCCCNC(=O)c1cc2c(NCCOCCN)c3c(c(NCCOCCN)c2s1)C(=O)c1ccccc1C3=O`, the IC50 stood at 10 µM in the series on L1210, 11 µM with CCRF-CEM and 9 µM in the series with HeLa. The Selectivity ratio in series [1] is 950. For the same molecule, the values for the ΔTm in the series on Quadruplex DNA [2] and in the series with Quadruplex DNA [5] were 14 °C and 20 °C, respectively. The figures for the Kb (in series [3]; in the series with Quadruplex DNA [4]) were 0.03 ×10⁶ /M and 29 ×10⁶ /M, respectively.

For `N=C(N)NCCCNC(=O)c1cc2c(NCCCCCN)c3c(c(NCCCCCN)c2o1)C(=O)c1ccccc1C3=O`, the IC50 in the series with L1210 was determined as 17 µM; in the series with CCRF-CEM it was 15 µM; in the series with HeLa it was 14 µM. The Selectivity ratio in series [1] was 1500. The ΔTm with Quadruplex DNA [2] was 15 °C; in the series on Quadruplex DNA [5], 18 °C. The Kb in series [3] turned out to be 0.01 ×10⁶ /M; in the series on Quadruplex DNA [4], 22 ×10⁶ /M.

For the molecule `N=C(N)NCCCNC(=O)c1cc2c(NCCCNC(=N)N)c3c(c(NCCCNC(=N)N)c2s1)C(=O)c1ccccc1C3=O`, the IC50 with L1210 is 10 µM; with CCRF-CEM, 11 µM; with HeLa, 18 µM. The Selectivity ratio in [1] turned out to be 1700. The ΔTm in the series on Quadruplex DNA [2] was 17 °C; in the series on Quadruplex DNA [5] it was 22 °C. The figures for the Kb (in [3]; in the series with Quadruplex DNA [4]) were 0.03 ×10⁶ /M and 47 ×10⁶ /M, respectively.

For `N=C(N)NCCCNc1c2c(c(NCCCNC(=N)N)c3sc(C(=O)NCCNC(=N)N)cc13)C(=O)c1ccccc1C2=O`, the IC50 with L1210 stood at 9 µM; with CCRF-CEM, 12 µM; in the series on HeLa it was 17 µM. Further, the ΔTm in the series on Quadruplex DNA [2] and in the series on Quadruplex DNA [5] was 21 °C each time. Further, in the series with Quadruplex DNA [4], the Kb stood at 44 ×10⁶ /M.

For `N=C(N)NCCNC(=O)c1cc2c(NCCNC(=N)N)c3c(c(NCCNC(=N)N)c2s1)C(=O)c1ccccc1C3=O`, the IC50 was 12 µM in the series with L1210, 16 µM in the series on CCRF-CEM and 18 µM in the series on HeLa. The Selectivity ratio in series [1] is 300. Further, the ΔTm with Quadruplex DNA [2] was 10 °C; in the series on Quadruplex DNA [5], 20 °C. In addition, the Kb in series [3] worked out at 0.1 ×10⁶ /M; with Quadruplex DNA [4], 33 ×10⁶ /M.
